Laboratory results from PubChem BioAssay AID330 (DTP/NCI, 2004).
Values joined by “and” are separate entries in the source; they are usually repeats but may differ in a detail not shown here. Equal values may be shown once. Inconclusive results and toxic doses are left out. Square brackets hold non-standard residues; d marks the D form. Peptide text beside a SMILES is read from it. ξ: configuration not given here. ξN = NC(=O)CC(N)C(=O)O

Test system: P388 leukemia ip, CD2F1 mice, survival T/C
Test: NCI In Vivo Anticancer Drug Screen. Data for tumor model P388 Leukemia (intraperitoneal) in CD2F1 (CDF1) mice
Conditions: endpoint: median survival time, higher = longer survival
Outline: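 Mice carrying the transplanted tumor received test compound or vehicle. Survival was recorded in each group, and the value is the treated-group measurement divided by that of the vehicle-treated control group.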

[1] = dose: 50.0 mg/kg/injection, schedule: Q01DX005 (ip), vehicle: Klucel (hydroxypropylcellulose) (HPC)
[2] = dose: 100.0 mg/kg/injection, schedule: Q01DX005 (ip), vehicle: Klucel (hydroxypropylcellulose) (HPC)
[3] = dose: 200.0 mg/kg/injection, schedule: Q01DX005 (ip), vehicle: Klucel (hydroxypropylcellulose) (HPC)
[4] = dose: 50.0 mg/kg/injection, schedule: Q01DX009 (ip), vehicle: saline
[5] = dose: 100.0 mg/kg/injection, schedule: Q01DX009 (ip), vehicle: saline
[6] = dose: 200.0 mg/kg/injection, schedule: Q01DX009 (ip), vehicle: saline
[7] = dose: 60.0 mg/kg/injection, schedule: Q01DX005 (ip), vehicle: saline with Tween-80
[8] = dose: 120.0 mg/kg/injection, schedule: Q01DX005 (ip), vehicle: saline with Tween-80
[9] = dose: 240.0 mg/kg/injection, schedule: Q01DX005 (ip), vehicle: saline with Tween-80
[10] = dose: 50.0 mg/kg/injection, schedule: Q01DX009 (ip), vehicle: saline with Tween-80
[11] = dose: 100.0 mg/kg/injection, schedule: Q01DX009 (ip), vehicle: saline with Tween-80
[12] = dose: 200.0 mg/kg/injection, schedule: Q01DX009 (ip), vehicle: saline with Tween-80
[13] = dose: 50.0 mg/kg/injection, schedule: Q01DX005 (ip), vehicle: saline with Tween-80
[14] = dose: 100.0 mg/kg/injection, schedule: Q01DX005 (ip), vehicle: saline with Tween-80
[15] = dose: 200.0 mg/kg/injection, schedule: Q01DX005 (ip), vehicle: saline with Tween-80
[16] = dose: 50.0 mg/kg/injection, schedule: Q01DX009 (ip), vehicle: Klucel (hydroxypropylcellulose) (HPC)
[17] = dose: 100.0 mg/kg/injection, schedule: Q01DX009 (ip), vehicle: Klucel (hydroxypropylcellulose) (HPC)
[18] = dose: 200.0 mg/kg/injection, schedule: Q01DX009 (ip), vehicle: Klucel (hydroxypropylcellulose) (HPC)

For `COc1cc2c(cc1OC)[C@H](C(=O)O)C(c1ccc3c(c1)OCO3)N(C)C2=O` (stereo not given in full), the T/C [1] was 95 % of control, the T/C [2] was 103 % of control and the T/C [3] was 88 % of control.

`O=C(O)C1Oc2cc3ccccc3cc2O1` was tested, and the T/C [4] was 90 % of control, the T/C [5] was 90 % of control and the T/C [6] was 97 % of control.

With `CN1CC2(CO)C(c3ccccc3)OC(c3ccccc3)C(CO)(C1)C2O` (stereo not given) the T/C [7] was 104 % of control and 100 % of control, the T/C [8] was 107 % of control and 100 % of control and the T/C [9] was 96 % of control.

With `CCOc1n[nH]c(-c2ccc(Cl)cc2Cl)n1` the T/C (dose: 100.0 mg/kg/injection, schedule: Q01DX001 (ip), vehicle: Klucel (hydroxypropylcellulose) (HPC)) was 102 % of control, the T/C (dose: 200.0 mg/kg/injection, schedule: Q01DX001 (ip), vehicle: Klucel (hydroxypropylcellulose) (HPC)) was 100 % of control and the T/C (dose: 400.0 mg/kg/injection, schedule: Q01DX001 (ip), vehicle: Klucel (hydroxypropylcellulose) (HPC)) was 101 % of control.

`COc1cc(C(=O)N/N=C/c2cccc([N+](=O)[O-])c2)cc(OC)c1OC` was tested, and the T/C [10] was 102 % of control and 115 % of control, the T/C [11] was 123 % of control and the T/C [12] was 163 % of control. For the same compound, the T/C (dose: 400.0 mg/kg/injection, schedule: Q01DX009 (ip), vehicle: saline with Tween-80) was 168 % of control.

`CC(NC(=O)C(NC(=O)OCc1ccccc1)C(C)O)C(=O)OCc1ccccc1` (stereo not given) was tested, and the T/C [13] was 101 % of control, the T/C [14] was 92 % of control and the T/C [15] was 100 % of control.

With `O=C(OCc1ccccc1)C(=O)c1c(O)n(-c2ccccc2)c2ccccc12` the T/C (dose: 100.0 mg/kg/injection, schedule: Q04DX002 (ip), vehicle: saline + alcohol) was 99 % of control, the T/C (dose: 200.0 mg/kg/injection, schedule: Q04DX002 (ip), vehicle: saline + alcohol) was 100 % of control and the T/C (dose: 400.0 mg/kg/injection, schedule: Q04DX002 (ip), vehicle: saline + alcohol) was 96 % of control.

For `CCCN1C(=O)CC(=O)N(CCC)P1(=O)OCC`, the T/C (dose: 100.0 mg/kg/injection, schedule: Q04DX002 (ip), vehicle: saline) was 101 % of control, the T/C (dose: 200.0 mg/kg/injection, schedule: Q04DX002 (ip), vehicle: saline) was 108 % of control and the T/C (dose: 400.0 mg/kg/injection, schedule: Q04DX002 (ip), vehicle: saline) was 101 % of control.

For `O=S(=O)(CC(O)C(Cl)(Cl)Cl)N1CCCCC1` (stereo not given), the T/C [16] was 101 % of control, the T/C [17] was 95 % of control and the T/C [18] was 100 % of control.

`O=c1c2cc3c(=O)n(CC[P+](c4ccccc4)(c4ccccc4)c4ccccc4)c(=O)c3cc2c(=O)n1CC[P+](c1ccccc1)(c1ccccc1)c1ccccc1` was tested, and the T/C (dose: 0.78 mg/kg/injection, schedule: Q01DX009 (ip), vehicle: water) was 99 % of control, the T/C (dose: 1.56 mg/kg/injection, schedule: Q01DX009 (ip), vehicle: water) was 97 % of control and the T/C (dose: 3.13 mg/kg/injection, schedule: Q01DX009 (ip), vehicle: water) was 93 % of control.

`O=c1c2ccccc2c2sc3c4ccccc4c(=O)c3c12` was tested, and the T/C (dose: 60.0 mg/kg/injection, schedule: Q01DX005 (ip), vehicle: Klucel (hydroxypropylcellulose) (HPC)) was 104 % of control, the T/C (dose: 120.0 mg/kg/injection, schedule: Q01DX005 (ip), vehicle: Klucel (hydroxypropylcellulose) (HPC)) was 99 % of control and the T/C (dose: 240.0 mg/kg/injection, schedule: Q01DX005 (ip), vehicle: Klucel (hydroxypropylcellulose) (HPC)) was 97 % of control.

For `CCOc1c(-c2ccccc2)c(=O)n2c3ccccc3n(CC)c2c1C#N`, the T/C (dose: 7.5 mg/kg/injection, schedule: Q01DX005 (ip), vehicle: saline with Tween-80) was 86 % of control, the T/C (dose: 15.0 mg/kg/injection, schedule: Q01DX005 (ip), vehicle: saline with Tween-80) was 87 % of control and the T/C (dose: 30.0 mg/kg/injection, schedule: Q01DX005 (ip), vehicle: saline with Tween-80) was 93 % of control. For the same compound, the T/C [8] was 88 % of control and the T/C [9] was 98 % of control and 100 % of control.

In the case of `N#CC(C#N)C(=O)c1ccccc1`, the T/C (dose: 50.0 mg/kg/injection, schedule: Q04DX003 (ip), vehicle: saline) is reported as 103 % of control, the T/C (dose: 100.0 mg/kg/injection, schedule: Q04DX003 (ip), vehicle: saline) is reported as 102 % of control and the T/C (dose: 200.0 mg/kg/injection, schedule: Q04DX003 (ip), vehicle: saline) is reported as 95 % of control. For the same compound, the T/C (dose: 400.0 mg/kg/injection, schedule: Q04DX003 (ip), vehicle: saline) was 95 % of control.

In the case of `O=C(O)CCC(=O)C(Cc1ccccc1)NC(=O)c1ccccc1` (stereo not given), the T/C [13] is reported as 94 % of control, the T/C [7] is reported as 91 % of control and the T/C [14] is reported as 89 % of control. The T/C [8] was 100 % of control, the T/C [15] was 100 % of control and the T/C [9] was 98 % of control.

For `COc1cccc(O)c1O`, the T/C [5] was 101 % of control, the T/C [6] was 100 % of control and the T/C (dose: 400.0 mg/kg/injection, schedule: Q01DX009 (ip), vehicle: saline) was 111 % of control.

For `O=S(=O)(OCC(O)C1OCC(O)C1O)c1ccccc1` (stereo not given), the T/C [4] was 98 % of control, the T/C [5] was 100 % of control and the T/C [6] was 105 % of control.

With `C=Cn1c([N+](=O)[O-])cnc1/C=C/c1ccc(C(=O)O)cc1` the T/C [16] was 92 % of control and 97 % of control, the T/C [17] was 89 % of control and 90 % of control and the T/C [18] was 95 % of control.

For `CCOc1cc2c(cc1C(C)c1ccc(OC)c(OC)c1)OCO2` (stereo not given), the T/C [1] was 100 % of control, the T/C [2] was 105 % of control and the T/C [3] was 107 % of control.

In the case of `COc1ccc(C2(c3ccc(OC)cc3)N=C(n3nc(C)cc3C)NC2=O)cc1`, the T/C (dose: 50.0 mg/kg/injection, schedule: Q04DX002 (ip), vehicle: saline with Tween-80) is reported as 94 % of control, the T/C (dose: 100.0 mg/kg/injection, schedule: Q04DX002 (ip), vehicle: saline with Tween-80) is reported as 98 % of control and the T/C (dose: 200.0 mg/kg/injection, schedule: Q04DX002 (ip), vehicle: saline with Tween-80) is reported as 94 % of control.

With `COc1c2c(cc3c1C(C1OC(=O)c4c1c([N+](=O)[O-])c(OC)c(OC)c4[N+](=O)[O-])N(C)CC3)OCO2` (stereo not given) the T/C (dose: 25.0 mg/kg/injection, schedule: Q01DX005 (ip), vehicle: Klucel (hydroxypropylcellulose) (HPC)) was 101 % of control, the T/C [1] was 92 % of control and the T/C [2] was 93 % of control. The T/C [3] was 91 % of control.

`CS(=O)(=O)NC1CC(=O)N(Cc2ccccc2)C1=O` (stereo not given) was tested, and the T/C (dose: 25.0 mg/kg/injection, schedule: Q01DX005 (ip), vehicle: saline) was 91 % of control, the T/C (dose: 50.0 mg/kg/injection, schedule: Q01DX005 (ip), vehicle: saline) was 99 % of control and the T/C (dose: 100.0 mg/kg/injection, schedule: Q01DX005 (ip), vehicle: saline) was 105 % of control.

`CN(c1ccccc1)C1C2=C(CCCC2)OC(=O)C12SCCCS2` (stereo not given) was tested, and the T/C (dose: 25.0 mg/kg/injection, schedule: Q04DX003 (ip), vehicle: saline with Tween-80) was 94 % of control, the T/C (dose: 50.0 mg/kg/injection, schedule: Q04DX003 (ip), vehicle: saline with Tween-80) was 96 % of control and the T/C (dose: 100.0 mg/kg/injection, schedule: Q04DX003 (ip), vehicle: saline with Tween-80) was 100 % of control and 98 % of control. For the same compound, the T/C (dose: 132.0 mg/kg/injection, schedule: Q04DX003 (ip), vehicle: saline with Tween-80) was 98 % of control, the T/C (dose: 200.0 mg/kg/injection, schedule: Q04DX003 (ip), vehicle: saline with Tween-80) was 106 % of control and the T/C (dose: 300.0 mg/kg/injection, schedule: Q04DX003 (ip), vehicle: saline with Tween-80) was 119 % of control. The T/C (dose: 400.0 mg/kg/injection, schedule: Q04DX003 (ip), vehicle: saline with Tween-80) was 105 % of control and 98 % of control.

For `COc1ccc(C/C=N/O)c(OC)c1`, the T/C (dose: 12.5 mg/kg/injection, schedule: Q01DX009 (ip), vehicle: other) was 91 % of control, the T/C (dose: 25.0 mg/kg/injection, schedule: Q01DX009 (ip), vehicle: other) was 89 % of control and the T/C (dose: 100.0 mg/kg/injection, schedule: Q01DX009 (ip), vehicle: other) was 93 % of control.

`NCC(=O)NC(CC(N)=O)C(=O)O` (stereo not given) (H-Gly-[ξN]-OH) was tested, and the T/C [4] was 119 % of control, the T/C [5] was 109 % of control and the T/C [6] was 114 % of control.

For `COC(=O)/C=C(\CCl)N=[N+]=[N-]`, the T/C [7] was 108 % of control, the T/C [8] was 109 % of control and the T/C [9] was 107 % of control.

`Clc1ccc(Cl)nn1` was tested, and the T/C [10] was 97 % of control, the T/C [11] was 100 % of control and the T/C [12] was 100 % of control.
